Test results from patent US20080200405A1, “Drug Resistance Reversal In Neoplastic Disease” (priority 2007, published 2008).
Read-outs that look alike come from different tables or passages of the source. Marks after values point to notes of the source that are not given here.

Legend:
Lipid peroxidation = Lipid peroxidation inhibition (method of Ohkawa); assay type: biochemical; details: for Lipid Peroxidation Inhibition, % Inhibition: 10 uM
Angiogenesis in CAM = assay: Neovascularization on the CAM (Inhibition of Angiogenesis in CAM); assay type: in vivo, chicken; details: 30 ug; for inhibition in vivo at 0.03 mg: Gallus gallus
Description: In vivo neovascularization was examined by the method previously described by Auerbach et al. (J. Dev. Biol. 41:391-394 (1974)). Ten-day old chicken embryos were purchased from Spafas, Inc. (Preston, Conn.) and were incubated at 37° C. with 55% relative humidity. In the dark, with the aid of a candling lamp, a small hole was punctured in the shell concealing the air sac with a hypodermic needle. A second hole was punctured in the shell on the broadside of the egg directly over an […] portion of the embryonic membrane, as observed during candling. An artificial air sac was created beneath the second hole by applying gentle vacuum to the first hole using a small rubber squeeze bulb. The vacuum caused the chorioallantoic membrane (CAM) to separate from the shell. A window, approximately 1.0 cm^2, was cut in the shell over the dropped CAM with the use of a small crafts grinding wheel (Dremel, Division of Emerson Electric Company Racine, Wis.). The window allowed direct access to the underlying CAM. A pro-angiogenic agent was added to induce new blood vessel branches on the CAM of 10-day old embryos. […] Louis, Mo.) in a solution (95% ethanol and water). The disks were subsequently air dried under sterile conditions. The disks were then suspended in PBS (Phosphate Buffered Saline) and placed on growing CAMs. […] For inducing angiogenesis, sterile filter disks were saturated with bFGF (1 μg/ml) (Life Technologies, Gaithersburg, Md.) or other pro-angiogenesis factors and control disks were saturated with PBS without Calcium and Magnesium. Control disks were saturated with PBS without Calcium and Magnesium. Using sterile forceps one filter/CAM was placed from the window. The window was sealed with Highland brand transparent tape. After 24-48 hr, 10-25 ul of test agent was injected intravenously or added topically into the CAM membrane. Eight-Ten eggs/treatment group were used. CAM tissue directly beneath filter disk was harvested from embryos treated 48 hours prior with compound or control. Tissues were washed three times with PBS. Sections were placed in a 35-mm petri dish (Nalge Nunc, Rochester, N.Y.) and examined under a SV6 stereomicroscope (Karl Zeiss, Thornwood, N.Y.) at 50× magnification. […] Digital images of CAM sections from Petri dish were collected using a 3-CCD color video camera system (Toshiba America, New York, N.Y.). These images were analyzed using Image-Pro Plus software (Media Cybernetics, Silver Spring, Md.). The number of branch points in blood vessels within the circular region superimposed to the area of a filter disk was counted for each section. […] Tissues were washed three times with PBS. Sections were placed in a 35-mm Petri dish (Nalge Nunc; Rochester, N.Y.) and were examined under a SV6 stereomicroscope (Karl Zeiss; Thornwood, N.Y.) at 50× magnification. Digital images of CAM sections adjacent to filters were collected using a 3-CCD color video camera system (Toshiba America; New York, N.Y.) and analyzed with the Image-Pro Plus software (Media Cybernetics; Silver Spring, Md.). The number of vessel branch points contained in a circular region equal to the area of a filter disk was counted for each section. Percent inhibition data are expressed as the quotient of the experimental value minus the negative control value divided by the difference between the positive control value and the negative control value. One image was counted in each CAM preparation, and findings from eight CAM preparations were analyzed for each treatment condition. In addition, each experiment was performed three times. The resulting angiogenesis index is the mean ±SEM (Standard Error of Measurement) of new branch points in each set of treatment. Statistical analysis of blood vessel branching patterns are performed by 1-way analysis of variance (ANOVA) comparing experimental with corresponding control groups.

[1] = tested on: Doxorubicin resistant SaOS2 cells; assay: Cancer cell viability (MTT) in the presence or absence of doxorubicin; assay type: cell-based, human; details: compound 50 ug/mL, 3 days
TNFα = assay: Measurement of LPS Induced-TNFα in THP-1 Cells; assay type: cell-based, human
[2] = tested on: angiogenesis in the CAM model; assay: Effect of TEMPOL-H on the anti-angiogenesis efficacy of ranibizumab in the CAM model; assay type: in vivo, chicken; details: for Mean % Inhibition +/− SEM, With TEMPOL-H (30 ug): P < 0.01; for Mean % Inhibition +/− SEM, Without TEMPOL-H: n = 6-8
Description: FIGS. 3A and 3B depict the effect of TEMPOL-H (OT-674) on the anti-angiogenesis efficacy of ranibizumab (LUCENTIS™) in the CAM model. FIG. 3A depicts 30 ug of TEMPOL-H and 1 ng of ranibizumab. FIG. […]
Ranibizumab (Genentech, South San Francisco, Calif.) is a monoclonal antibody fragment that binds to VEGF-A. It is anti-angiogenic and is approved to treat the wet type of age-related macular degeneration. The effect of the co-administration of TEMPOL-H (also referred to as OT-674) with Ranibizumab is depicted in Table 9. This effect is also depicted in FIGS. 3A and 3B.

[3] = tested on: Human whole blood clot formation
Description: TEG: Human whole blood (±drugs) was added to the cylindrical cuvette (“cup”). […] The cup oscillates 4°45′ ( 1/12 radian) in either direction every 4.5 seconds, with a 1-second mid-cycle stationary period, resulting in a frequency of 0.1 Hz and a maximal shear rate of 0.1 per second. The pin was suspended by a torsion wire that acts as a torque transducer. […] The torque experienced by the pin (relative to the oscillation of the cup) was plotted as a function of time (Forsythe, S. A. M. S. K. M. S. (2000): “Comparative In Vitro Efficacy of Different Platelet Glycoprotein IIb/IIIa Antagonists on Platelet-Mediated Clot Strength Induced by Tissue Factor With Use of Thromboelastography.” Arteriosclerosis, Thrombosis, and Vascular Biology 20: 1162).
(Data represent mean ±SD, n=6 (blood form normal healthy volunteers), *P<0.01 as compared to control)

[4] = Homo sapiens, THP-1, compound 10 uM, 5 ng/mL LPS, read-out: Mean Percent Inhibition of TNF-alpha using 5 ng/mL LPS
[5] = Homo sapiens, THP-1, read-out: TNFalpha IC50
[6] = TEG, human whole blood, Ranibizumab 1 ng/cup, Comp. 4 0 uM, *P<0.01 vs control

Row | Molecule | Lipid Peroxidation Inhibition, % Inhibition (Lipid peroxidation) [%] | melting point | inhibition in vivo at 0.03 mg (Angiogenesis in CAM) [%] | Mean OD (×10^−3), MTT viability ([1]; Dox. 10^−6 M (+)) | Mean OD (×10^−3), MTT viability ([1]; absence of Dox. (−)) | inhibition at 10 µM (TNFα; [4]) [%] | IC50 (TNFα; [5]) [µM] | further results
1 | COc1cc2c(cc1O)CC[C@@H]1[C@@H]2CC[C@]2(C)[C@@H](O)CC[C@@H]12 [2-methoxyestradiol, reference compound] | 92.3 |  |  |  |  |  |  | Inhibition of Angiogenesis in CAM, % Inhibition (Angiogenesis in CAM): 92.3%
2 | CC1(C)CC(C#N)CC(C)(C)N1O.Cl [Compound 12, 4-cyano-1-hydroxyl-2,2,6,6-tetramethylpiperidine hydrogen chloride] |  | 186 °C (dec.) | 92.1 | 287.25 ×10^−3 | 539.25 ×10^−3 | 35 | 21.5 | 
3 | CC1(C)CC(Oc2nsnc2Cl)CC(C)(C)N1O [Compound 13, 4-(4-chloro-1,2,5-thiadiazol-3-yloxyl)-1-hydroxyl-2,2,6,6-tetramethylpiperidine hydrogen chloride] |  |  | 93.4 |  |  | 36 | 16.4 | 
4 | CC1(C)CC(Oc2nsnc2OC2CC(C)(C)N(O)C(C)(C)C2)CC(C)(C)N1O [Compound 14, 1-hydroxyl-4-(4-(2,2,6,6-tetramethylpiperidin-1-hydroxyl-4-yloxy)-1,2,5-thiadiazol-3-yloxy)-2,2,6,6-tetramethylpiperidine bis-hydrogen chloride] |  |  | 95.2 |  |  |  |  | inhibition at 10 µM (TNFα; Homo sapiens, THP-1, read-out: Mean Percent Inhibition of TNF-alpha using 5 ng/mL LPS): 63 ± 1%; IC50 (TNFα; Homo sapiens, THP-1, read-out: TNFalpha IC50 (uM)): 11.4 µM
5 | CC1(C)c2ccc(C(=O)O)cc2C(C)(C)N1O.Cl [Compound 15, 1,1,3,3-tetramethylisoindolin-2-hydroxyl-5-carboxylic acid hydrogen chloride] | 94.6 | 225.5 °C (dec.) | 94.6 |  |  | 67 ± 7 |  | % Lipid Peroxidation inhibition (at 1 uM) (Lipid peroxidation; 1 uM): 88.0%
6 | CC1(C)COCC(C)(C)N1O.Cl [Compound 20, 3,3,5,5-1-hydroxy-tetramethylmorpholine hydrogen chloride] | 90.2 | 184.6 °C (dec.) | 90.2 | 107.5 ×10^−3 | 515.50 ×10^−3 |  | ≥ 100 | 
7 | CC1(C)CC(Cl)CC(C)(C)N1O.Cl [Compound 21, 4-chloro-1-hydroxy-2,2,6,6-tetramethylpiperidine hydrogen chloride] |  | 201.8 °C (dec.) | 94.1 | 99.25 ×10^−3 | 492.75 ×10^−3 |  | 21.7 | 
8 | CC1(C)C=C(C(N)=O)C(C)(C)N1O [Compound 23, 2,5-dihydro-2,2,5,5-tetramethyl-1H-pyrrole-3-carboxamide-1-hydroxy] |  |  |  | 416.25 ×10^−3 | 1432.50 ×10^−3 |  |  | % inhibition of angiogenesis in CAM at 30 ug (Angiogenesis in CAM): 48.8; IC50 (TNFα; read-out: TNFalpha IC50): 87.4 µM
9 | CC1(C)CC(NC(=O)C2CC2)C(C)(C)N1O.Cl (stereo not drawn) [Compound 38, N-(1-hydroxy-2,2,5,5-tetramethylpyrrolidin-3-yl)cyclopropanecarboxamide hydrogen chloride] |  |  |  | 378.50 ×10^−3 | 1202.75 ×10^−3 |  | ≥ 100 | % inhibition of angiogenesis in CAM at 30 ug (Angiogenesis in CAM): 62.8
10 | Ranibizumab: a monoclonal antibody fragment that binds to VEGF-A |  |  |  |  |  |  |  | Mean % Inhibition +/− SEM, With TEMPOL-H (30 ug) ([2]; VEGF + Ranibizumab (1 ug) with TEMPOL-H (30 ug)): 54 +/− 9* %; Mean % Inhibition +/− SEM, Without TEMPOL-H ([2]; VEGF + Ranibizumab (1 ug)): 18 +/− 5%; Mean % Inhibition +/− SEM, With TEMPOL-H (30 ug) ([2]; VEGF + Ranibizumab (10 ug) with TEMPOL-H (30 ug)): 69 +/− 6* %; Mean % Inhibition +/− SEM, Without TEMPOL-H ([2]; VEGF + Ranibizumab (10 ug)): 33 +/− 6%; Mean % Inhibition +/− SEM, With TEMPOL-H (30 ug) ([2]; VEGF + Ranibizumab (100 ug) with TEMPOL-H (30 ug)): 83 +/− 4* %; Mean % Inhibition +/− SEM, Without TEMPOL-H ([2]; VEGF + Ranibizumab (100 ug)): 53 +/− 8%; MA in comparison to native blood [3]: approximately six times larger MA; initiation of clot formation in comparison to native blood [3]: approximately two to three fold faster; Clot Strength - MA [3, 6]: 28.5 ± 3.4* mm; Time to Clot Initiation R [3, 6]: 6.9 ± 1.4* min
